Measurements published in the supplement of paper PMC10307832.

Tests used:
Assay in all cases: relative viability (nuclei count vs DMSO), 5 days (fraction); higher = more cells survive
NCI-H1651 = tested on: NCI-H1651
How it was run: (§1)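 Lung cancer cell lines, seeded in 1536-well plates, were treated the following day by pin tool with a single drug or with five library-drug doses (not always all listed) in √10 steps on top of a fixed anchor-drug dose. Cells were fixed and nuclei stained in one step after 5 days, and nuclei were counted. Relative viability is the nuclei count for treated wells divided by that for vehicle wells, reported as medians of duplicate plates.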

NCI-H596 = tested on: NCI-H596
How it was run: as §1

NCI-H650 = tested on: NCI-H650
How it was run: as §1

NCI-H1944 = tested on: NCI-H1944
How it was run: as §1

NCI-H2023 = tested on: NCI-H2023
How it was run: as §1

NCI-H460 = tested on: NCI-H460
How it was run: as §1

ABC-1 = tested on: ABC-1
How it was run: as §1

LCLC-97TM1 = tested on: LCLC-97TM1
How it was run: as §1

NCI-H727 = tested on: NCI-H727
How it was run: as §1

H3255 = tested on: H3255
How it was run: as §1

CAL-12T = tested on: CAL-12T
How it was run: as §1

`CC(=O)O[C@@]12CO[C@@H]1C[C@H](O)[C@@]1(C)C(=O)[C@H](O)C3=C(C)[C@@H](OC(=O)[C@H](O)[C@@H](NC(=O)OC(C)(C)C)c4ccccc4)C[C@@](O)([C@@H](OC(=O)c4ccccc4)[C@H]21)C3(C)C` [Docetaxel] + COc1cc2c(Oc3ccc(NC(=O)C4(C(=O)Nc5ccc(F)cc5)CC4)cc3F)ccnc2cc1OCCCN1CCOCC1 [Foretinib] (partner 0.25 µM) was tested, and the relative viability (NCI-H1651; first compound 0.0002 µM) was 0.795, the relative viability (NCI-H1651; first compound 0.000632 µM) was 0.789 and the relative viability (NCI-H1651; first compound 0.002 µM) was 0.238. The relative viability (NCI-H1651; first compound 0.006325 µM) was 0.128, the relative viability (NCI-H1651; first compound 0.02 µM) was 0.107 and the relative viability (NCI-H596; first compound 0.0002 µM) was 0.901. The relative viability (NCI-H596; first compound 0.000632 µM) was 0.51, the relative viability (NCI-H596; first compound 0.002 µM) was 0.419 and the relative viability (NCI-H596; first compound 0.006325 µM) was 0.365. It also gave a relative viability (NCI-H596; first compound 0.02 µM) of 0.217, a relative viability (NCI-H650; first compound 0.0002 µM) of 0.958 and a relative viability (NCI-H650; first compound 0.000632 µM) of 0.921. The relative viability (NCI-H650; first compound 0.002 µM) was 0.299, the relative viability (NCI-H650; first compound 0.006325 µM) was 0.277 and the relative viability (NCI-H650; first compound 0.02 µM) was 0.218. The relative viability (NCI-H1944; first compound 0.0002 µM) was 0.85, the relative viability (NCI-H1944; first compound 0.000632 µM) was 0.86 and the relative viability (NCI-H1944; first compound 0.002 µM) was 0.692. For the same molecule, the relative viability (NCI-H1944; first compound 0.006325 µM) was 0.31, the relative viability (NCI-H1944; first compound 0.02 µM) was 0.151 and the relative viability (NCI-H2023; first compound 0.0002 µM) was 0.735. For the same molecule, the relative viability (NCI-H2023; first compound 0.000632 µM) was 0.868, the relative viability (NCI-H2023; first compound 0.002 µM) was 0.111 and the relative viability (NCI-H2023; first compound 0.006325 µM) was 0.102. The relative viability (NCI-H2023; first compound 0.02 µM) was 0.0789, the relative viability (NCI-H460; first compound 0.0002 µM) was 0.952 and the relative viability (NCI-H460; first compound 0.000632 µM) was 0.933. For the same molecule, the relative viability (NCI-H460; first compound 0.002 µM) was 0.184, the relative viability (NCI-H460; first compound 0.006325 µM) was 0.0294 and the relative viability (NCI-H460; first compound 0.02 µM) was 0.022. It also gave a relative viability (ABC-1; first compound 0.0002 µM) of 1.16, a relative viability (ABC-1; first compound 0.000632 µM) of 1.18 and a relative viability (ABC-1; first compound 0.002 µM) of 0.333. For the same molecule, the relative viability (ABC-1; first compound 0.006325 µM) was 0.351, the relative viability (ABC-1; first compound 0.02 µM) was 0.216 and the relative viability (LCLC-97TM1; first compound 0.0002 µM) was 0.846. It also gave a relative viability (LCLC-97TM1; first compound 0.000632 µM) of 0.641, a relative viability (LCLC-97TM1; first compound 0.002 µM) of 0.697 and a relative viability (LCLC-97TM1; first compound 0.006325 µM) of 0.218. The relative viability (LCLC-97TM1; first compound 0.02 µM) was 0.146, the relative viability (NCI-H727; first compound 0.0002 µM) was 0.834 and the relative viability (NCI-H727; first compound 0.000632 µM) was 0.693. For the same molecule, the relative viability (NCI-H727; first compound 0.002 µM) was 0.788, the relative viability (NCI-H727; first compound 0.006325 µM) was 0.507 and the relative viability (NCI-H727; first compound 0.02 µM) was 0.346. It also gave a relative viability (H3255; first compound 0.0002 µM) of 0.889, a relative viability (H3255; first compound 0.000632 µM) of 0.909 and a relative viability (H3255; first compound 0.002 µM) of 0.66. For the same molecule, the relative viability (H3255; first compound 0.006325 µM) was 0.335, the relative viability (H3255; first compound 0.02 µM) was 0.266 and the relative viability (CAL-12T; first compound 0.0002 µM) was 0.979. It also gave a relative viability (CAL-12T; first compound 0.000632 µM) of 0.729 and a relative viability (CAL-12T; first compound 0.002 µM) of 0.238.
